Test results reported in EP4772505A1, “COMPOUND FOR DEGRADING ANDROGEN RECEPTOR AND MEDICAL USE THEREOF” (Ubix Therapeutics, Inc., priority 2023, dated 2025).
Where two headings read alike, the source gives them in different places.

Molecular target: T1, Androgen Receptor (AR) (Homo sapiens, UniProt P10275)
T1 sequence (P10275 1-920): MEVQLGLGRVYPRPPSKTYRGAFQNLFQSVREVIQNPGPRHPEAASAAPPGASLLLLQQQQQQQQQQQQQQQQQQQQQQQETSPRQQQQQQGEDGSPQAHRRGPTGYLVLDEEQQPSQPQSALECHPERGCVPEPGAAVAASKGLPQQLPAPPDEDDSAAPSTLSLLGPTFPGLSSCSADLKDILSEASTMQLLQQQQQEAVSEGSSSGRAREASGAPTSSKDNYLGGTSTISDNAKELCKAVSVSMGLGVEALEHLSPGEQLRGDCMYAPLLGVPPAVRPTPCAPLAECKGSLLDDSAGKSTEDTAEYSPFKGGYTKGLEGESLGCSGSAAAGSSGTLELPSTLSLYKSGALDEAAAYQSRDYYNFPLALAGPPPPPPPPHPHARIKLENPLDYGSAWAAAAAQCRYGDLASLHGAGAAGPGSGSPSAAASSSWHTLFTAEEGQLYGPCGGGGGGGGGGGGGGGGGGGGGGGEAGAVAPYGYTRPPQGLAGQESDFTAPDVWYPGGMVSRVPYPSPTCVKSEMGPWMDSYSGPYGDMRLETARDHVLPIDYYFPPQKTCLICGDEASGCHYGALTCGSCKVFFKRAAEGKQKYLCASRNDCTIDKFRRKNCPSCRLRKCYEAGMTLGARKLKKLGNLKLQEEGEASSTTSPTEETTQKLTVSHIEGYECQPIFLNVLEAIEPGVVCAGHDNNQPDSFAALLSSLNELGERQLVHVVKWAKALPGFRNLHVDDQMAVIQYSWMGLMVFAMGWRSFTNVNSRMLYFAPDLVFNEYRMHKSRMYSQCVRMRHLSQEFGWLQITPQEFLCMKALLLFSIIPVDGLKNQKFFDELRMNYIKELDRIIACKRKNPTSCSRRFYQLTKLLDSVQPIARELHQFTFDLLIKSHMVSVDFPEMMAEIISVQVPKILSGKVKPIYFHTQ
Experiment: Measurement of AR protein degradation in VCaP cells by Western blotting
Type: cell-based
Design: endogenous in cells; host or cells: VCaP
Conditions: for Dmax at 0.01 µM / Dmax at 0.1 µM: read-out: AR degradation in VCaP cells (%)
Procedure: The amount of AR protein present in LNCaP or VCaP cells was measured after treating them with the synthesized compound. The amount of AR protein was measured using Western blotting. The protocol for the experiments using LNCaP or VCaP cells was as follows.
[Culture] LNCaP cells were resuspended in RPMI1640 medium + HEPES (Hyclone, SH30255.01), 10% FBS (Hyclone, SV30207.02), and 1% Penicillin-streptomycin (Welgene, LS 202-02). 3 x 10^5 cells/mL were seeded in 12-well plates (1 mL per well) and cultured for 3 days. VCaP cells were resuspended in IMDM MEDIUM (Hyclone, SH30228.01), 20% FBS (Hyclone, SV30207.02), and 1% Penicillin-streptomycin (Welgene, LS 202-02), seeded at 9 x 10^5/mL in 1 mL per 12-well plate, and cultured for 3 days.
[Compound Treatment] 10 µL of 100x stock (e.g., 0.1, 1, 10 µM) compound solution at the final compound treatment concentration (e.g., 0.001, 0.01, 0.1 µM) was added to each well in 1 mL media, and cells were harvested after 20 hours. For DC50 measurement, 100x stock (0.01, 0.1, 1, 10, 100, 1000 µM) compound solutions at the final compound treatment concentration (0.0001, 0.001, 0.01, 0.1, 1, 10 µM) were used.
[Cell lysis] The cell pellet was suspended using 1% SDS lysis buffer (50 mM Tris, 1 mM EDTA, 1% SDS, pH 8.0, 0.5 mM PMSF, 1x Protease/Phosphatase inhibitor Cocktail (Cell Signaling Technology, 5872S)), and sonication (70% AMP, 10 cycles (30 sec ON/59 sec OFF)) was performed. After centrifugation at 4°C and 20,000 g for 20 minutes, the cell lysate was obtained and transferred to a new tube.
[Protein Quantification] A BCA protein assay (SMART™ BCA Protein Assay Kit, iNtRON Biotechnology, 21071) was performed using a 96-well microplate. 5 µL of cell lysate and 5 µL of 1% SDS lysis buffer were added to each well of the 96-well plate, followed by an additional 200 µL of BCA reagent (Reagent A: Reagent B = 50:1). The wells were incubated at 37°C for 30 minutes and cooled to room temperature for 10 minutes. After shaking for 10 seconds, the absorbance was measured at a wavelength of 562 nm. The unknown protein concentration was determined using a BSA standard curve (0, 0.125, 0.25, 0.5, 1, 2 mg/mL). Western blotting samples were prepared by mixing cell lysate, 1% SDS lysis buffer, 4x NuPAGE™ LDS Sample buffer (Invitrogen, NP0008), and 10X NuPAGE™ Sample Reducing Agent (Invitrogen, NP0009) and boiling at 70°C for 10 minutes.
[Electrophoresis] 10 µg of protein sample was loaded into each well of a NuPAGE™ 4 to 12%, Bis-Tris, 1.0 mm Mini Protein Gel, 15-well, 17-well, or 26-well (Invitrogen, NP0323BOX, NP0329BOX, or WG1403BOX) and electrophoresed for 40 minutes using NuPAGE™MES SDS Running Buffer (Invitrogen, NP0002) at 200 V (constant V).
[Transfer] Transfer was performed for 15 or 18 minutes using the electrophoresed gel and the Trans-Blot® Turbo™ Transfer Starter System (Bio-RAD, #17001918, Mini Nitrocellulose) at 1.3 A (constant A) and 25 V (limit V). To confirm protein transfer, 15 mL of Ponceau S solution (Sigma, P7170-1L) was used to stain for 1 minute, and then washed to check the degree of transfer.
[Blocking] The membrane for AR and GAPDH detection was blocked with 5% skim milk/0.2% TBST (Skim milk: BD, 232100/ 20X TBS: Biosesang, TR2008-100-00/ 10% Tween 20 Solution: Bio-RAD, #161-0781) for 45 minutes.
[Antibodies and Detection] Primary AR antibody (Androgen Receptor: CST, 5153S) was mixed with 5% skim milk/0.2% TBST at a ratio of 1:1,000 and reacted at room temperature for 3 hours or at 4°C overnight. Primary GAPDH antibody (CST, 2118S) was mixed with 5% skim milk/0.2% TBST at a ratio of 1:2,000 and reacted at room temperature for 3 hours or at 4°C overnight. Afterwards, TBST (0.2% Tween 20) was used for washing three times every 5 minutes. Secondary antibody to AR antibody, Anti-rabbit IgG, HRP-linked Antibody (CST, 7074S), was mixed with 5% skim milk/0.2% TBST at a ratio of 1:5,000 and reacted at room temperature for 45 minutes. […]

[1] = 10 nM compound, 20 hours, VCaP cells
[2] = 100 nM compound, 20 hours, VCaP cells

N#Cc1ccc(N2CCC(C(=O)Nc3ccc(OC4CCN(CC5CCN(c6ccc(NC7CCC(=O)NC7=O)cc6F)CC5)CC4)cn3)CC2)cc1C(F)(F)F (stereo not drawn) [Example 1, 1-(4-cyano-3-(trifluoromethyl)phenyl)-N-(5-((1-((1-(4-((2,6-dioxopiperidin-3-yl)amino)-2-fluorophenyl)piperidin-4-yl)methyl)piperidin-4-yl)oxy)pyridin-2-yl)piperidine-4-carboxamide] showed a Dmax at 0.01 µM (VCaP, 20 h) of 89% and a Dmax at 0.1 µM (VCaP, 20 h) of 99%.

Work on N#Cc1ccc(N2CCC(C(=O)Nc3ccc(OC4CCN(CC5CCN(c6ccc(NC7CCC(=O)NC7=O)cc6F)CC5)CC4)cn3)CC2)c(F)c1Cl (stereo not drawn) [Example 12, 1-(3-chloro-4-cyano-2-fluorophenyl)-N-(5-((1-((1-(4-((2,6-dioxopiperidin-3-yl)amino)-2-fluorophenyl)piperidin-4-yl)methyl)piperidin-4-yl)oxy)pyridin-2-yl)piperidine-4-carboxamide] yielded a Dmax at 0.01 µM (VCaP, 20 h) of 94% and a Dmax at 0.1 µM (VCaP, 20 h) of 98%.

In the case of N#Cc1ccc(N2CCC(C(=O)Nc3ccc(OC4CCN(CC5CCN(c6ccc(NC7CCC(=O)NC7=O)cc6F)CC5)CC4)nn3)CC2)c(F)c1Cl (stereo not drawn) [Example 15, 1-(3-chloro-4-cyano-2-fluorophenyl)-N-(6-((1-((1-(4-((2,6-dioxopiperidin-3-yl)amino)-2-fluorophenyl)piperidin-4-yl)methyl)piperidin-4-yl)oxy)pyridazin-3-yl)piperidine-4-carboxamide], the Dmax at 0.01 µM (VCaP, 20 h) is reported as 98% and the Dmax at 0.1 µM (VCaP, 20 h) is reported as 100%.

With N#Cc1ccc(N2CCC(C(=O)Nc3ccc(OC4CCN(CC5CCN(c6ccc(N[C@@H]7CCC(=O)NC7=O)cc6F)CC5)CC4)cn3)CC2)cc1C(F)(F)F [Example 3, (R)-1-(4-cyano-3-(trifluoromethyl)phenyl)-N-(5-((1-((1-(4-((2,6-dioxopiperidin-3-yl)amino)-2-fluorophenyl)piperidin-4-yl)methyl)piperidin-4-yl)oxy)pyridin-2-yl)piperidine-4-carboxamide] the Dmax at 0.01 µM (VCaP, 20 h) was 72% and the Dmax at 0.1 µM (VCaP, 20 h) was 96%.

N#Cc1ccc(N2CCC(C(=O)Nc3ccc(OC4CCN(CC5CCN(c6ccc(N[C@H]7CCC(=O)NC7=O)cc6F)CC5)CC4)cn3)CC2)cc1Cl [Example 9, (S)-1-(3-chloro-4-cyanophenyl)-N-(5-((1-((1-(4-((2,6-dioxopiperidin-3-yl)amino)-2-fluorophenyl)piperidin-4-yl)methyl)piperidin-4-yl)oxy)pyridin-2-yl)piperidine-4-carboxamide] was tested, and the Dmax at 0.01 µM (VCaP, 20 h) was 94%, the Dmax at 0.1 µM (VCaP, 20 h) was 99% and the Dmax (VCaP, read-out: AR degradation in VCaP cells Dmax (%)) was 99%. The DC50 (read-out: AR degradation in VCaP cells DC50, VCaP cells, 20 hours) was 0.1 nM.

Work on N#Cc1ccc(N2CCC(C(=O)Nc3ccc(OC4CCN(CC5CCN(c6ccc(NC7CCC(=O)NC7=O)cc6F)CC5)CC4)cn3)CC2)cc1Cl (stereo not drawn) [Example 8, 1-(3-chloro-4-cyanophenyl)-N-(5-((1-((1-(4-((2,6-dioxopiperidin-3-yl)amino)-2-fluorophenyl)piperidin-4-yl)methyl)piperidin-4-yl)oxy)pyridin-2-yl)piperidine-4-carboxamide] yielded a Dmax at 0.01 µM (VCaP, 20 h) of 94% and a Dmax at 0.1 µM (VCaP, 20 h) of 99%.

For N#Cc1ccc(N2CCC(C(=O)Nc3ccc(OC4CCN(CC5CCN(c6ccc(N[C@@H]7CCC(=O)NC7=O)cc6F)CC5)CC4)cn3)CC2)cc1Cl [Example 10, (R)-1-(3-chloro-4-cyanophenyl)-N-(5-((1-((1-(4-((2,6-dioxopiperidin-3-yl)amino)-2-fluorophenyl)piperidin-4-yl)methyl)piperidin-4-yl)oxy)pyridin-2-yl)piperidine-4-carboxamide], the Dmax at 0.01 µM (VCaP, 20 h) was 85% and the Dmax at 0.1 µM (VCaP, 20 h) was 99%.

N#Cc1ccc(N2CCC(C(=O)Nc3ccc(OC4CCN(CC5CCN(c6ccc(NC7CCC(=O)NC7=O)cc6F)CC5)CC4)nn3)CC2)cc1C(F)(F)F (stereo not drawn) [Example 7, 1-(4-cyano-3-(trifluoromethyl)phenyl)-N-(6-((1-((1-(4-((2,6-dioxopiperidin-3-yl)amino)-2-fluorophenyl)piperidin-4-yl)methyl)piperidin-4-yl)oxy)pyridazin-3-yl)piperidine-4-carboxamide] was tested, and the Dmax at 0.01 µM (VCaP, 20 h) was 94% and the Dmax at 0.1 µM (VCaP, 20 h) was 100%.

For N#Cc1ccc(N2CCC(C(=O)Nc3ccc(OC4CCN(CC5CCN(c6ccc(NC7CCC(=O)NC7=O)cc6Cl)CC5)CC4)cn3)CC2)cc1C(F)(F)F (stereo not drawn) [Example 17, N-(5-((1-((1-(2-chloro-4-((2,6-dioxopiperidin-3-yl)amino)phenyl)piperidin-4-yl)methyl)piperidin-4-yl)oxy)pyridin-2-yl)-1-(4-cyano-3-(trifluoromethyl)phenyl)piperidine-4-carboxamide], the Dmax at 0.01 µM (VCaP, 20 h) was 75% and the Dmax at 0.1 µM (VCaP, 20 h) was 97%.

In the case of COc1cc(N2CCC(C(=O)Nc3ccc(OC4CCN(CC5CCN(c6ccc(NC7CCC(=O)NC7=O)cc6F)CC5)CC4)nn3)CC2)ccc1C#N (stereo not drawn) [Example 16, 1-(4-cyano-3-methoxyphenyl)-N-(6-((1-((1-(4-((2,6-dioxopiperidin-3-yl)amino)-2-fluorophenyl)piperidin-4-yl)methyl)piperidin-4-yl)oxy)pyridazin-3-yl)piperidine-4-carboxamide], the Dmax at 0.01 µM [1] is reported as 99% and the Dmax at 0.1 µM [2] is reported as 100%.

For COc1cc(N2CCC(C(=O)Nc3ccc(OC4CCN(CC5CCN(c6ccc(NC7CCC(=O)NC7=O)cc6F)CC5)CC4)cn3)CC2)ccc1C#N (stereo not drawn) [Example 13, 1-(4-cyano-3-methoxyphenyl)-N-(5-((1-((1-(4-((2,6-dioxopiperidin-3-yl)amino)-2-fluorophenyl)piperidin-4-yl)methyl)piperidin-4-yl)oxy)pyridin-2-yl)piperidine-4-carboxamide], the Dmax at 0.01 µM [1] was 95% and the Dmax at 0.1 µM [2] was 100%.
